US12139480B2, “5-thiazolecarboxamide kinase inhibitor and uses thereof” (iOmx Therapeutics AG, priority 2018, dated 2024)
Read-outs that look alike come from different tables or passages of the source.

Legend:
ABL2 = target: T1, ABL2 (Homo sapiens, UniProt P42684); assay: single-point (1 uM) inhibition assay (ProQinase Kinase Profiler); assay type: biochemical; settings: 1 uM compound, read-out: % residual activity class (FIG. 3)
T1 construct: purchased ProQinase

ACK1 = target: T2, ACK1 (Homo sapiens, UniProt Q07912); assay: as above; assay type: biochemical; settings: 1 uM compound, read-out: % residual activity class (FIG. 3)
T2 construct: purchased ProQinase

ACV-R1 = target: T3, ACV-R1 (Homo sapiens, UniProt Q04771); assay: as above; assay type: biochemical; settings: read-out: % residual activity class (FIG. 3)
T3 construct: purchased ProQinase
T3 sequence (Q04771 21-509): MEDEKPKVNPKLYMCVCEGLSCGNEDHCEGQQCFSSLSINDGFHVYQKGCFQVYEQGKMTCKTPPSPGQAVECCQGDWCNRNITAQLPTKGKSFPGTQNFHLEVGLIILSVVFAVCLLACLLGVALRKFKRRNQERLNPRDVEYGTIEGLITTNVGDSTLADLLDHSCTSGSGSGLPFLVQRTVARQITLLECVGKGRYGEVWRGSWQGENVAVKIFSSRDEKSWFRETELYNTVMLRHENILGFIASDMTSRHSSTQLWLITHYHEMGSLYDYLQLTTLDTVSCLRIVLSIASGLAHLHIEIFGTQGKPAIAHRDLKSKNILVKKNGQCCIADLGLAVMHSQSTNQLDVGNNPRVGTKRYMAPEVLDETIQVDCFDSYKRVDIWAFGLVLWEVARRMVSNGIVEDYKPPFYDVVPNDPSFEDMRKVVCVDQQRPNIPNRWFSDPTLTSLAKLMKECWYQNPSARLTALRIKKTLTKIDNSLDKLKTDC

ACV-R1B = target: T4, ACV-R1B (Homo sapiens, UniProt P36896); assay: as above; assay type: biochemical; settings: read-out: % residual activity class (FIG. 3)
T4 construct: purchased ProQinase

ACV-RL1 = target: T5, ACV-RL1 (Homo sapiens, UniProt P37023); assay: as above; assay type: biochemical; settings: 1 uM compound, read-out: % residual activity class (FIG. 3)
T5 construct: purchased ProQinase

BLK = target: T6, BLK (Homo sapiens, UniProt P51451); assay: as above; assay type: biochemical; settings: 1 uM compound, read-out: % residual activity class (FIG. 3)
T6 construct: purchased ProQinase

CSK = target: T7, CSK (Homo sapiens, UniProt P41240); assay: as above; assay type: biochemical; settings: 1 uM compound, read-out: % residual activity class (FIG. 3)
T7 construct: purchased ProQinase

EPHA3 = target: T8, EPHA3 (Homo sapiens, UniProt P29320); assay: as above; assay type: biochemical
T8 construct: purchased ProQinase
T8 sequence (P29320 21-983): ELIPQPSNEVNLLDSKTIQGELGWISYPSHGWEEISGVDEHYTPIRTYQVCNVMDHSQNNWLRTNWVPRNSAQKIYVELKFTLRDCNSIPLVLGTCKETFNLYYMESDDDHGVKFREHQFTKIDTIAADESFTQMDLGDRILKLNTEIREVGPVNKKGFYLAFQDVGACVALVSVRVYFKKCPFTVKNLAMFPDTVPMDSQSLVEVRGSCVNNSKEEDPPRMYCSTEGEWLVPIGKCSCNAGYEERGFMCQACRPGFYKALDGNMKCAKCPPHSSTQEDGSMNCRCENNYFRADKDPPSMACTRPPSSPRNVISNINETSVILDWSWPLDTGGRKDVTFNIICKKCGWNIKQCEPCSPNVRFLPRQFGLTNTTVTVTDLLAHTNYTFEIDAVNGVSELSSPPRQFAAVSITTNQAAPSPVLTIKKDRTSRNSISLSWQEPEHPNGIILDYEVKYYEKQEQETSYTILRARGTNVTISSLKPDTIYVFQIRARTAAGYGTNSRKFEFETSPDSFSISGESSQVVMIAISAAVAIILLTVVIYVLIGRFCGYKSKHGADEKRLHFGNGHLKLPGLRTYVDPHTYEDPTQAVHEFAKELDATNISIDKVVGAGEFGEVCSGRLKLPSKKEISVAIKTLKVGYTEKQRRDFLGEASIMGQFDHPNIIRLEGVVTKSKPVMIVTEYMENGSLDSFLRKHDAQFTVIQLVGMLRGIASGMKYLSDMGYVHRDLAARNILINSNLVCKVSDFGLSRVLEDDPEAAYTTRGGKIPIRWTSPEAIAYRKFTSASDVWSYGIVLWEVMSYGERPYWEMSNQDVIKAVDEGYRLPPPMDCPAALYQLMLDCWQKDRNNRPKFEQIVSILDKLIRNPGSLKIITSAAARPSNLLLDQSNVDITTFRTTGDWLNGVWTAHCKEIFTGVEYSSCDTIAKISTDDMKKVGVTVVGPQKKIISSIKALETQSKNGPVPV

EPHB1 = target: T9, EPHB1 (Homo sapiens, UniProt P54762); assay: as above; assay type: biochemical
T9 construct: purchased ProQinase
T9 sequence (P54762 18-984): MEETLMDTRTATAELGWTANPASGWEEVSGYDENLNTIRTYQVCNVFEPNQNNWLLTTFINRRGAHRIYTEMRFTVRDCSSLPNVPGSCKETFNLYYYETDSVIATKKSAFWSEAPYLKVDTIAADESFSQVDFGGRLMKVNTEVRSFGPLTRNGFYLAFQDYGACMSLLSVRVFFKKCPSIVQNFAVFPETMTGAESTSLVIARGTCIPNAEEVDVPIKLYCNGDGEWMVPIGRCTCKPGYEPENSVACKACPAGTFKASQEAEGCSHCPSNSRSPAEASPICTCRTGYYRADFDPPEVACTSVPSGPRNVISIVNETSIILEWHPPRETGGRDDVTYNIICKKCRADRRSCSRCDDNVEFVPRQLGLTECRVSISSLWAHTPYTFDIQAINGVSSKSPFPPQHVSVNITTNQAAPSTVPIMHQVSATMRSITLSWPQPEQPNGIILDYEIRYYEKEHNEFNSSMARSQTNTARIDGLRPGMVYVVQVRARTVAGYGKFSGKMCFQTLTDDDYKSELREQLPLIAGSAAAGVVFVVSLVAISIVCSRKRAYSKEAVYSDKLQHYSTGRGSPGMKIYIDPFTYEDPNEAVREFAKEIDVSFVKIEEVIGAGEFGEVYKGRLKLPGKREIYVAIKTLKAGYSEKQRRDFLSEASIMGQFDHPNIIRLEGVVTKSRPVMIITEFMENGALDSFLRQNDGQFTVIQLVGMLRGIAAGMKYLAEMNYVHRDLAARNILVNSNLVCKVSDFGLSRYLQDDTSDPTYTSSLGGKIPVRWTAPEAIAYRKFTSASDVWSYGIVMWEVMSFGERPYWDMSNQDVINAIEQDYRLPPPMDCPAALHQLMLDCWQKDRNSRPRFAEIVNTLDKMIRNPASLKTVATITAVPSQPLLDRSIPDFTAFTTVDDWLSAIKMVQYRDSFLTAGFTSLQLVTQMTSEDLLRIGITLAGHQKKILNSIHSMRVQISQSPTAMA

EPHB2 = target: T10, EPHB2 (Homo sapiens, UniProt P29323); assay: as above; assay type: biochemical; settings: read-out: % residual activity class (FIG. 3)
T10 construct: purchased ProQinase

FGR = target: T11, FGR (Homo sapiens, UniProt P09769); assay: as above; assay type: biochemical; settings: 1 uM compound, read-out: % residual activity class (FIG. 3)
T11 construct: purchased ProQinase

FRK = target: T12, FRK (Homo sapiens, UniProt P42685); assay: as above; assay type: biochemical; settings: 1 uM compound, read-out: % residual activity class (FIG. 3)
T12 construct: purchased ProQinase

HCK = target: T13, HCK (Homo sapiens, UniProt P08631); assay: as above; assay type: biochemical; settings: 1 uM compound, read-out: % residual activity class (FIG. 3)
T13 construct: purchased ProQinase

LYN = target: T14, LYN (Homo sapiens, UniProt P07948); assay: as above; assay type: biochemical; settings: 1 uM compound, read-out: % residual activity class (FIG. 3)
T14 construct: purchased ProQinase
T14 sequence (P07948 whole entry): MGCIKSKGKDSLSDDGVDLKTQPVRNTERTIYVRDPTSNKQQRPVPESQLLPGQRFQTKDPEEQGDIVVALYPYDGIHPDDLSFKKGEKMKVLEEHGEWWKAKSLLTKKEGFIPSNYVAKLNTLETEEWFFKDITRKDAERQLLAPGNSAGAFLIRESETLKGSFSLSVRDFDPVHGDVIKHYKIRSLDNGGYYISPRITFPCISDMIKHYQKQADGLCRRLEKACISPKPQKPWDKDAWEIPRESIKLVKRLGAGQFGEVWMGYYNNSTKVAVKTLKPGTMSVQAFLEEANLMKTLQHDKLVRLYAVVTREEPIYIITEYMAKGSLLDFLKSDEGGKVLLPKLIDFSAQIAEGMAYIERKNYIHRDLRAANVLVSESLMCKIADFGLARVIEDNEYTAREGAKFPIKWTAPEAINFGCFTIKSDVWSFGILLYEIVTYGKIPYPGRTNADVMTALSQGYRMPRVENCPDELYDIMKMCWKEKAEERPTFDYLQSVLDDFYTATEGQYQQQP

MAP4K5 = target: T15, MAP4K5 (Homo sapiens, UniProt Q9Y4K4); assay: as above; assay type: biochemical; settings: read-out: % residual activity class (FIG. 3)
T15 construct: purchased ProQinase

NLK = target: T16, NLK (Homo sapiens, UniProt Q9UBE8); assay: as above; assay type: biochemical; settings: 1 uM compound, read-out: % residual activity class (FIG. 3)
T16 construct: purchased ProQinase

p38-alpha = target: T17, p38-alpha (Homo sapiens, UniProt Q16539); assay: as above; assay type: biochemical; settings: read-out: % residual activity class (FIG. 3)
T17 construct: purchased ProQinase

PDGFR-alpha = target: T18, PDGFR-alpha (Homo sapiens, UniProt P16234); assay: as above; assay type: biochemical; settings: read-out: % residual activity class (FIG. 3)
T18 construct: purchased ProQinase

PDGFR-beta = target: T19, PDGFR-beta (Homo sapiens, UniProt P09619); assay: biochemical
T19 construct: purchased ProQinase
T19 sequence (P09619 33-1106): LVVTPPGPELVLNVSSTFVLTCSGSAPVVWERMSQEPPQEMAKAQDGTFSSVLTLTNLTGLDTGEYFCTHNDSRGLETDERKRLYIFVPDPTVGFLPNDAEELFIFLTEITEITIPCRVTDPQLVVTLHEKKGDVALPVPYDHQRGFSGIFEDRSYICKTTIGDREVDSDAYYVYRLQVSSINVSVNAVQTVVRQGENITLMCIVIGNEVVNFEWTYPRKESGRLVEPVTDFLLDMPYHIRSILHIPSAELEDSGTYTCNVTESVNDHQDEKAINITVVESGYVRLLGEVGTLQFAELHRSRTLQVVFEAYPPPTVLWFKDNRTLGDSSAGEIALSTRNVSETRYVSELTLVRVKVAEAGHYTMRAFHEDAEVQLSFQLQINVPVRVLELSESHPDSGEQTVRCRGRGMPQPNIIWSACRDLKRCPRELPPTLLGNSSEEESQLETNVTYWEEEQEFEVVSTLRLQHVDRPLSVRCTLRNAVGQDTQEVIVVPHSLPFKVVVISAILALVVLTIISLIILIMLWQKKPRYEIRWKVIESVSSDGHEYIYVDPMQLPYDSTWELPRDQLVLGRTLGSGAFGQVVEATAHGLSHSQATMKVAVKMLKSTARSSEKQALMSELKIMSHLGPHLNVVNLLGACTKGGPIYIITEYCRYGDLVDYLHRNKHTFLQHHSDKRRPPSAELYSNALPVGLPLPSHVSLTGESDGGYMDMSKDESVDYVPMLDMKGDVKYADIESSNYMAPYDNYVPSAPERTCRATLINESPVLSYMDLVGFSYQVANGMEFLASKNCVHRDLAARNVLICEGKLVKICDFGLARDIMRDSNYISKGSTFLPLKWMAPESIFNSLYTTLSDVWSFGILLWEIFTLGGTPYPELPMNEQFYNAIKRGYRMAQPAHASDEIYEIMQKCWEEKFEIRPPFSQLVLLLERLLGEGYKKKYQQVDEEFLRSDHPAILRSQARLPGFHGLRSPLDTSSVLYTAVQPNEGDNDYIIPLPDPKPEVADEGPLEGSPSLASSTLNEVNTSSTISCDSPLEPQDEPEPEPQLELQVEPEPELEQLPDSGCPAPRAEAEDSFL

RIPK2 = target: T20, RIPK2 (Homo sapiens, UniProt O43353); assay: single-point (1 uM) inhibition assay (ProQinase Kinase Profiler); assay type: biochemical; settings: 1 uM compound, read-out: % residual activity class (FIG. 3)
T20 construct: purchased ProQinase

SIK1 = target: T21, SIK1 (Homo sapiens, UniProt P57059); assay: as above; assay type: biochemical; settings: read-out: % residual activity class (FIG. 3)
T21 construct: purchased ProQinase

SIK2 = target: T22, SIK2 (Homo sapiens, UniProt Q9H0K1); assay: as above; assay type: biochemical; settings: read-out: % residual activity class (FIG. 3)
T22 construct: purchased ProQinase

SIK3 = target: T23, SIK3 (Homo sapiens, UniProt Q9Y2K2); assay: as above; assay type: biochemical; settings: read-out: % residual activity class (FIG. 3)
T23 construct: purchased ProQinase

SRMS = target: T24, SRMS (Homo sapiens, UniProt Q9H3Y6); assay: as above; assay type: biochemical; settings: 1 uM compound, read-out: % residual activity class (FIG. 3)
T24 construct: purchased ProQinase

TEC = target: T25, TEC (Homo sapiens, UniProt P42680); assay: as above; assay type: biochemical; settings: 1 uM compound, read-out: % residual activity class (FIG. 3)
T25 construct: purchased ProQinase

TXK = target: T26, TXK (Homo sapiens, UniProt P42681); assay: as above; assay type: biochemical; settings: 1 uM compound, read-out: % residual activity class (FIG. 3)
T26 construct: purchased ProQinase

ZAK = target: T27, ZAK (Homo sapiens, UniProt Q9NYL2); assay: as above; assay type: biochemical; settings: 1 uM compound, read-out: % residual activity class (FIG. 3)
T27 construct: purchased ProQinase

DDR2 = target: T28, DDR2 (Homo sapiens, UniProt Q16832); assay: as above; assay type: biochemical; settings: 1 uM compound, read-out: % residual activity class (FIG. 3)
T28 construct: purchased ProQinase, Freiburg, Germany (Kinase Profiler panel)

RET = target: T29, RET (Homo sapiens, UniProt P07949); assay: as above; assay type: biochemical
T29 construct: purchased ProQinase, Freiburg, Germany (Kinase Profiler panel)
T29 sequence (P07949 29-1114): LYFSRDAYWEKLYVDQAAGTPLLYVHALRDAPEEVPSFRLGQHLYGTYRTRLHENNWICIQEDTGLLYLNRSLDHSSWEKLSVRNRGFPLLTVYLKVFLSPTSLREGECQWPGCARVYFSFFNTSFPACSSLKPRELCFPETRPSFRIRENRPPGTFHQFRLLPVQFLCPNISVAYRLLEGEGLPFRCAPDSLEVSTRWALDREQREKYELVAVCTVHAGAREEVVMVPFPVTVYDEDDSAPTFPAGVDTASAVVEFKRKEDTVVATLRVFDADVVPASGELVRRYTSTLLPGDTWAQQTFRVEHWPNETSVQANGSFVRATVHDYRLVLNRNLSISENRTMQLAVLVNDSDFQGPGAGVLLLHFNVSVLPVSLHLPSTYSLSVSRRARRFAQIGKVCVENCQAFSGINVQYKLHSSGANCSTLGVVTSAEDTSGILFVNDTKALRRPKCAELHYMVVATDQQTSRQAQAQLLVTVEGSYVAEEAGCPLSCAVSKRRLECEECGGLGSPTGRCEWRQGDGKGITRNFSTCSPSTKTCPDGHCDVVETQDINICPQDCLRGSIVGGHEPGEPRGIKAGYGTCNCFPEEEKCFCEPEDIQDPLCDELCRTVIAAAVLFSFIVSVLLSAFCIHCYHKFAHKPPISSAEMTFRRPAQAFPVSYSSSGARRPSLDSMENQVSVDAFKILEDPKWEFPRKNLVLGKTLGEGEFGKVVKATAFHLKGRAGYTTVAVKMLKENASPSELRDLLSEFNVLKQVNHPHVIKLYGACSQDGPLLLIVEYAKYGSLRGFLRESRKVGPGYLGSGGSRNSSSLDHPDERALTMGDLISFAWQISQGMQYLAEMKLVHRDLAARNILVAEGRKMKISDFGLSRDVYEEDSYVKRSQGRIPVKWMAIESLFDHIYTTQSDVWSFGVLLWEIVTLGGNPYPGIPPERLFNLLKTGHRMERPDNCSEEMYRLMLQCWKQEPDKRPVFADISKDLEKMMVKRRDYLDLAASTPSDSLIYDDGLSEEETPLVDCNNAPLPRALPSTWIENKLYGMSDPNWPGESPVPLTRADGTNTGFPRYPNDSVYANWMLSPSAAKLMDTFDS

MDCK-wild type cells = settings: dog
MDCK-MDR1 cells = settings: dog
hERG potassium channel = hERG potassium channel (Homo sapiens, UniProt Q12809); settings: page 31, NDA 21-986, cited from earlier work
[1] = cited from earlier work
FYN = FYN (Homo sapiens, UniProt P06241); assay: single-point (1 uM) inhibition assay (ProQinase Kinase Profiler); settings: read-out: % residual activity class (FIG. 3)
BMX = target: T30, BMX (Homo sapiens, UniProt P51813); assay: as above; assay type: biochemical; settings: 1 uM compound, read-out: % residual activity class (FIG. 3)
T30 construct: purchased ProQinase

B-RAF = target: T31, B-RAF (Homo sapiens, UniProt P15056); assay: as above; assay type: biochemical
T31 construct: purchased ProQinase

EPHA4 = target: T32, EPHA4 (Homo sapiens, UniProt P54764); assay: as above; assay type: biochemical
T32 construct: purchased ProQinase

ERBB4 = target: T33, ERBB4 (Homo sapiens, UniProt Q15303); assay: as above; assay type: biochemical; settings: 1 uM compound, read-out: % residual activity class (FIG. 3)
T33 construct: purchased ProQinase

NIK = NIK (Homo sapiens, UniProt Q99558); assay: biochemical; settings: read-out: Residual activity (%) at 1 uM
[2] = read-out: % residual activity class (FIG. 3)
[3] = PDGFR-beta, 1 uM compound, read-out: % residual activity class (FIG. 3)
[4] = read-out: Residual activity (%) at 1 uM
[5] = read-out: Residual activity (%) at 1 uM, RET

Cc1nc(Nc2ncc(C(=O)Nc3c(C)cccc3Cl)s2)cc(N2CCN(CCO)CC2)n1 [Compound A8, N-(2-chloro-6-methylphenyl)-2-((6-(4-(2-hydroxyethyl)piperazin-1-yl)-2-methylpyrimidin-4-yl)amino)thiazole-5-carboxamide, reference compound]
remaining activity at 1 µM (ABL2): < 25% | remaining activity at 1 µM (ACK1): < 25% | remaining activity at 1 µM (ACV-R1; ACV-R1, 1 uM compound): < 25% | remaining activity at 1 µM (ACV-R1B; ACV-R1B, 1 uM compound): < 25% | remaining activity at 1 µM (ACV-RL1): < 25% | remaining activity at 1 µM (BLK): < 25% | remaining activity at 1 µM (CSK): < 25% | remaining activity at 1 µM (EPHA3; EPHA3, 1 uM compound, read-out: % residual activity class (FIG. 3)): < 25% | remaining activity at 1 µM (EPHB1; [2]): < 25% | remaining activity at 1 µM (EPHB2; EPHB2, 1 uM compound): < 25% | remaining activity at 1 µM (FGR): < 25% | remaining activity at 1 µM (FRK): < 25% | remaining activity at 1 µM (HCK): < 25% | remaining activity at 1 µM (LYN): < 25% | remaining activity at 1 µM (MAP4K5; MAP4K5, 1 uM compound): < 25% | remaining activity at 1 µM (NLK): < 25% | remaining activity at 1 µM (p38-alpha; p38-alpha, 1 uM compound): < 25% | remaining activity at 1 µM (PDGFR-alpha): < 25% | remaining activity at 1 µM (PDGFR-beta; [3]): < 25% | remaining activity at 1 µM (PDGFR-beta; [4]): 2% | remaining activity at 1 µM (RIPK2): < 25% | remaining activity at 1 µM (SIK1; SIK1, 1 uM compound): < 25% | remaining activity at 1 µM (SIK2; SIK2, 1 uM compound): < 25% | remaining activity at 1 µM (SIK3; SIK3, 1 uM compound): < 25% | remaining activity at 1 µM (SRMS): < 25% | remaining activity at 1 µM (TEC): < 25% | remaining activity at 1 µM (TXK): < 25% | remaining activity at 1 µM (ZAK): < 25% | remaining activity at 1 µM (DDR2): < 25% | Residual activity (%) at 1 uM (RET; RET, 1 µM): 39% | remaining activity at 1 µM (RET; RET, 1 uM compound, read-out: % residual activity class (FIG. 3)): 25 to 50% | remaining activity at 1 µM (RET; [5]): < 40% | Mean Papp A > B (MDCK-wild type cells): 21 | Mean Papp A > B (MDCK-MDR1 cells): 2.4 | inhibition of hERG currents (hERG potassium channel; 3 uM): about 6% | inhibition of hERG currents (hERG potassium channel; 10 uM): ~36% | cardiac adverse reactions ([1]; 258 patients taking dasatinib): 5.8 % of patients | cardiomyopathy, heart failure congestive, diastolic dysfunction, fatal myocardial infarction, and left ventricular dysfunction ([1]; 258 patients taking dasatinib): 1.6 % of patients | other cases of severe haemorrhage ([1]; all clinical studies): 2 % of patients | severe central nervous system (CNS) haemorrhages (including fatalities) ([1]; all clinical studies): 1 % of patients | severe gastrointestinal haemorrhage, including fatalities ([1]; all clinical studies): 4 % of patients | QT prolongation ([1]; clinical trials): up to 1 % of CML patients | severe fluid retention ([1]; clinical trials): up to 10 % of patients | remaining activity at 1 µM (FYN): < 25%

Cc1nc(Nc2ncc(C(=O)Nc3c(Cl)ccnc3C)s2)cc(N2CCN(CCO)CC2)n1 [Compound B3, N-(4-chloro-2-methylpyridin-3-yl)-2-((6-(4-(2-hydroxyethyl)piperazin-1-yl)-2-methylpyrimidin-4-yl)amino)thiazole-5-carboxamide]
remaining activity at 1 µM (ABL2): < 25% | remaining activity at 1 µM (ACK1): < 25% | remaining activity at 1 µM (ACV-R1): 25 to 50% | remaining activity at 1 µM (ACV-R1B): 25 to 50% | remaining activity at 1 µM (ACV-RL1): 25 to 50% | remaining activity at 1 µM (BLK): < 25% | remaining activity at 1 µM (BMX): < 25% | remaining activity at 1 µM (B-RAF; [2]): 25 to 50% | remaining activity at 1 µM (B-RAF; [4]): ~50% | remaining activity at 1 µM (CSK): < 25% | remaining activity at 1 µM (EPHA3; [2]): < 25% | remaining activity at 1 µM (EPHA3; [4]): 0% | remaining activity at 1 µM (EPHA4; [2]): < 25% | remaining activity at 1 µM (EPHA4; [4]): 10% | remaining activity at 1 µM (EPHB1; [2]): < 25% | remaining activity at 1 µM (EPHB1; [4]): 0% | remaining activity at 1 µM (EPHB2): < 25% | remaining activity at 1 µM (ERBB4): < 25% | remaining activity at 1 µM (FGR): < 25% | remaining activity at 1 µM (FRK): < 25% | remaining activity at 1 µM (HCK): < 25% | remaining activity at 1 µM (LYN): < 25% | remaining activity at 1 µM (MAP4K5): 25 to 50% | remaining activity at 1 µM (NLK): 25 to 50% | remaining activity at 1 µM (p38-alpha): 25 to 50% | remaining activity at 1 µM (PDGFR-alpha): < 25% | remaining activity at 1 µM (PDGFR-beta; [3]): < 25% | remaining activity at 1 µM (PDGFR-beta; [4]): 6% | remaining activity at 1 µM (RIPK2): < 25% | remaining activity at 1 µM (SIK1): < 25% | remaining activity at 1 µM (SIK2): < 25% | remaining activity at 1 µM (SIK3): < 25% | remaining activity at 1 µM (SRMS): 25 to 50% | remaining activity at 1 µM (TEC): < 25% | remaining activity at 1 µM (TXK): < 25% | remaining activity at 1 µM (ZAK): < 25% | remaining activity at 1 µM (DDR2): < 25% | remaining activity at 1 µM (RET; [5]): ~100% | Mean recovery B > A (MDCK-wild type cells): 120% | Mean recovery A > B (MDCK-MDR1 cells): 93% | remaining activity at 1 µM (NIK): 100% | remaining activity at 1 µM (FYN): < 25%
